Read-outs that look alike come from different tables or passages of the source.
Target: PI3K isoform δ (Homo sapiens (Human), UniProt O00329)
Test: TR-FRET assay of enzymatic activity of class I PI3K isoforms
[1] = read-out: IC50 (nM) for PI3K isoform δ (Table 3), TR-FRET, 2× Km ATP, 2 μM PIP2, incubated for 30 minutes at 25° C.
[2] = IC50 (nM) for PI3K isoform δ (Table 2), TR-FRET, 2× Km ATP, 2 μM PIP2, incubated for 30 minutes at 25° C.
[3] = read-out: IC50 (nM) for PI3K isoform δ (Table 2), TR-FRET, 2× Km ATP, 2 μM PIP2, incubated for 30 minutes at 25° C.

PI3K isoform δ, sequence (O00329 whole entry, canonical isoform): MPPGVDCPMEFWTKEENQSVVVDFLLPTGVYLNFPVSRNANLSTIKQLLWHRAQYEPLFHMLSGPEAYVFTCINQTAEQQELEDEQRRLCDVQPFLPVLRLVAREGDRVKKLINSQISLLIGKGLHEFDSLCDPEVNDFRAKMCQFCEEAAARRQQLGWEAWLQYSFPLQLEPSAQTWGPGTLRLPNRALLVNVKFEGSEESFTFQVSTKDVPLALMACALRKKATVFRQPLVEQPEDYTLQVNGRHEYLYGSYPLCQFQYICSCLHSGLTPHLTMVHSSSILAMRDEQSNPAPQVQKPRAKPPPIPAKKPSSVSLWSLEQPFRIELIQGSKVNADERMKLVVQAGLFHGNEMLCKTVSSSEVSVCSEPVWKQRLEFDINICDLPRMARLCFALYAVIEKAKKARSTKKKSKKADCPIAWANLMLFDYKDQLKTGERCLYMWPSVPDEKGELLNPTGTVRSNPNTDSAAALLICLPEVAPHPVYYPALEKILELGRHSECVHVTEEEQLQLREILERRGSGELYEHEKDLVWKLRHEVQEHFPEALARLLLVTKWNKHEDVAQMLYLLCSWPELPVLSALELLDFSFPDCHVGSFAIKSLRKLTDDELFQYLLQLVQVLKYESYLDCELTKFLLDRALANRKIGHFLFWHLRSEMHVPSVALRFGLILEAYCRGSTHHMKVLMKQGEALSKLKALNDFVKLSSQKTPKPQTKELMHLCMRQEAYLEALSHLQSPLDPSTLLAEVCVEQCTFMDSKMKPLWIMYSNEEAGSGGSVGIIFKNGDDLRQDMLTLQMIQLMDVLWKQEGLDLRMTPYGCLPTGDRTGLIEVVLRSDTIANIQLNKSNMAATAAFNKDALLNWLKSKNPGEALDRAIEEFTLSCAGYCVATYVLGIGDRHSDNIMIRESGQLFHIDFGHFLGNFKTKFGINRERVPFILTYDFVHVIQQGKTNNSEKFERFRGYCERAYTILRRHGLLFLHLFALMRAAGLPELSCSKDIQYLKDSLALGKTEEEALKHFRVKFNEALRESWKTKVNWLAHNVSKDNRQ
PI3K isoform δ, sequence (P27986 whole entry partner, canonical isoform): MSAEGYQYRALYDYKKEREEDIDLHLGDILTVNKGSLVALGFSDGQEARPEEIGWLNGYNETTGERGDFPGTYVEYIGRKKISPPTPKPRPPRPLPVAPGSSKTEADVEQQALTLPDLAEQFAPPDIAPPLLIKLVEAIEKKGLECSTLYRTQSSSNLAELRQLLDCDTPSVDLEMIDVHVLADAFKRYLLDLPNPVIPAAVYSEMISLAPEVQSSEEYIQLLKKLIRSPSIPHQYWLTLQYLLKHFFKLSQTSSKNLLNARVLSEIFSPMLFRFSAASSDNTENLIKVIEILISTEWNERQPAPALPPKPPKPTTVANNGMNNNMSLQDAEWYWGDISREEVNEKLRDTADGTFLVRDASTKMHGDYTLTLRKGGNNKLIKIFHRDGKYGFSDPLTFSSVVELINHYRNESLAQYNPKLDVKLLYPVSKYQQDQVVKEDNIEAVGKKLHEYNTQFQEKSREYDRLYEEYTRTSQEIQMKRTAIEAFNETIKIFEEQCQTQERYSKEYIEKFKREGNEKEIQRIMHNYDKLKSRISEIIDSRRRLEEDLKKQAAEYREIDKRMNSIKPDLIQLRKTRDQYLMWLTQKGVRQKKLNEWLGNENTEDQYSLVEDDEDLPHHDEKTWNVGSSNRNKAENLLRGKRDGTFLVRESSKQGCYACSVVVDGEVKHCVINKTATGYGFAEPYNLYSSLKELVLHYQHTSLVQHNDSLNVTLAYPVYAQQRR
Text: TR-FRET monitored the formation of 3,4,5-inositol triphosphate molecule that competed with fluorescently labeled PIP3 for binding to the GRP-1 pleckstrin homology domain protein. […] Class I PI3K isoforms were expressed and purified as heterodimeric recombinant proteins. All assay reagents and buffers for the TR-FRET assay were purchased from Millipore.

Structure (SMILES) | IC50 [1] [nM] | IC50 [3] [nM] | also measured
N#Cc1c(N)nc(N)nc1NC(c1nc2cccc(F)c2c(=O)n1-c1cccc(F)c1)C1CC1 (single isomer, unassigned) [Compound 15a, 2,4-diamino-6-((cyclopropyl(5-fluoro-3-(3-fluorophenyl)-4-oxo-3,4-dihydroquinazolin-2-yl)methyl)amino)pyrimidine-5-carbonitrile] |  |  | IC50: 6 nM
CS(=O)(=O)c1cccc2nc(C(Nc3nc(N)nc(N)c3C#N)C3CC3)n(-c3ccccc3F)c(=O)c12 (single isomer, unassigned) [Compound 17a-1] |  |  | IC50 [2]: 6 nM
CS(=O)(=O)c1cccc2nc(C(Nc3nc(N)nc(N)c3C#N)C3CC3)n(-c3ccccc3F)c(=O)c12 (single isomer, unassigned) [Compound 17a-2] |  |  | IC50 [2]: 8 nM
N#Cc1c(N)nc(N)nc1N[C@H](c1nc2cccc(C#N)c2c(=O)n1-c1ccccc1)C1CC1 [Compound 1a, (S)-2-(cyclopropyl((2,6-diamino-5-cyanopyrimidin-4-yl)amino)methyl)-4-oxo-3-phenyl-3,4-dihydroquinazoline-5-carbonitrile] |  | 5 | 
N#Cc1c(N)nc(N)nc1N[C@H](c1nc2c(F)ccc(C#N)c2c(=O)n1-c1ccccc1)C1CC1 [Compound 2a, (S)-2-(cyclopropyl((2,6-diamino-5-cyanopyrimidin-4-yl)amino)methyl)-8-fluoro-4-oxo-3-phenyl-3,4-dihydroquinazoline-5-carbonitrile] |  | 10 | 
N#Cc1c(N)nc(N)nc1N[C@@H](c1ccccc1)c1nc2cccc(Cl)c2c(=O)n1-c1ccccc1 [Compound 3a, (S)-2,4-diamino-6-(((5-chloro-4-oxo-3-phenyl-3,4-dihydroquinazoline-2-yl)(phenyl)methyl)amino)pyrimidine-5-carbonitrile] |  | 0.3 | 
N#Cc1c(N)nc(N)nc1N[C@H](c1nc2cccc(C#N)c2c(=O)n1-c1cc(F)cc(C(F)F)c1)C1CC1 [Compound 4a] |  | 49 | 
CS(=O)(=O)c1cccc2nc([C@@H](Nc3nc(N)nc(N)c3C#N)C3CC3)n(-c3cccc(F)c3)c(=O)c12 [Compound 5a, (S)-2,4-diamino-6-((cyclopropyl(3-(3-fluorophenyl)-5-(methylsulfonyl)-4-oxo-3,4-dihydroquinazolin-2-yl)methyl)amino)pyrimidine-5-carbonitrile] |  | 5 | 
CS(=O)(=O)c1cccc2nc([C@@H](Nc3nc(N)nc(N)c3C#N)C3CC3)n(-c3c(F)cccc3F)c(=O)c12 [Compound 6a, (S)-2,4-diamino-6-((cyclopropyl(3-(2,6-difluorophenyl)-5-(methylsulfonyl)-4-oxo-3,4-dihydroquinazolin-2-yl)methyl)amino)pyrimidine-5-carbonitrile] |  | 41 | 
N#Cc1c(N)nc(N)nc1N[C@H](c1nc2ccc(F)c(C#N)c2c(=O)n1-c1cccc(F)c1)C1CC1 [Compound 7a, (S)-2-(cyclopropyl((2,6-diamino-5-cyanopyrimidin-4-yl)amino)methyl)-6-fluoro-3-(3-fluorophenyl)-4-oxo-3,4-dihydroquinazoline-5-carbonitrile] |  | 6 | 
N#Cc1c(N)nc(N)nc1N[C@H](c1nc2ccc(F)c(C#N)c2c(=O)n1-c1ccccc1)C1CC1 [Compound 8a, (S)-2-(cyclopropyl((2,6-diamino-5-cyanopyrimidin-4-yl)amino)methyl)-6-fluoro-4-oxo-3-phenyl-3,4-dihydroquinazoline-5-carbonitrile] |  | 2 | 
CN(C)C(=O)C[C@H](Nc1nc(N)nc(N)c1C#N)c1nc2cccc(Cl)c2c(=O)n1-c1cc(F)cc(F)c1 [Compound 9a, (S)-3-(5-chloro-3-(3,5-difluorophenyl)-4-oxo-3,4-dihydroquinazolin-2-yl)-3-((2,6-diamino-5-cyanopyrimidin-4-yl)amino)-N,N-dimethylpropanamide] |  | 61 | 
CN(C)C(=O)C[C@H](Nc1nc(N)nc(N)c1C#N)c1nc2cccc(Cl)c2c(=O)n1-c1ccccc1 [Compound 10a, (S)-3-(5-chloro-4-oxo-3-phenyl-3,4-dihydroquinazolin-2-yl)-3-((2,6-diamino-5-cyanopyrimidin-4-yl)amino)-N,N-dimethylpropanamide] |  | 2 | 
Cc1cccc2nc([C@@H](Nc3nc(N)nc(N)c3C#N)C3CC3)n(-c3cc(F)cc(C#N)c3)c(=O)c12 [Compound 11a, (S)-2,4-diamino-6-(((3-(3-cyano-5-fluorophenyl)-5-methyl-4-oxo-3,4-dihydroquinazolin-2-yl)(cyclopropyl)methyl)amino)pyrimidine-5-carbonitrile] |  | 14 | 
Cc1cccc2nc([C@@H](Nc3nc(N)nc(N)c3C#N)C3CC3)n(-c3cc(F)cc(F)c3)c(=O)c12 [Compound 12a, (S)-2,4-diamino-6-((cyclopropyl(3-(3,5-difluorophenyl)-5-methyl-4-oxo-3,4-dihydroquinazolin-2-yl)methyl)amino)pyrimidine-5-carbonitrile] |  | 1 | 
N#Cc1c(N)nc(N)nc1N[C@H](c1nc2cccc(Cl)c2c(=O)n1-c1cc(F)cc(F)c1)C1CC1 [Compound 13a, (S)-2,4-diamino-6-(((5-chloro-3-(3,5-difluorophenyl)-4-oxo-3,4-dihydroquinazolin-2-yl)(cyclopropyl)methyl)amino)pyrimidine-5-carbonitrile] |  | 1 | 
N#Cc1c(N)nc(N)nc1N[C@H](c1nc2cccc(F)c2c(=O)n1-c1cc(F)cc(F)c1)C1CC1 [Compound 14a, (S)-2,4-diamino-6-((cyclopropyl(3-(3,5-difluorophenyl)-5-fluoro-4-oxo-3,4-dihydroquinazolin-2-yl)methyl)amino)pyrimidine-5-carbonitrile] |  | 19 | 
N#Cc1c(N)nc(N)nc1N[C@H](c1nc2ccc(F)cc2c(=O)n1-c1cccc(F)c1)C1CC1 [Compound 16a, (S)-2,4-diamino-6-((cyclopropyl(6-fluoro-3-(3-fluorophenyl)-4-oxo-3,4-dihydroquinazolin-2-yl)methyl)amino)pyrimidine-5-carbonitrile] |  | 4 | 
CO[C@H]1C[C@@H](c2nc3cccc(Cl)c3c(=O)n2-c2cc(F)cc(F)c2)N(c2nc(N)nc(N)c2C#N)C1 [Compound 19, 2,4-diamino-6-((2S)-2-(5-chloro-3-(3,5-difluorophenyl)-4-oxo-3,4-dihydroquinazolin-2-yl)-4-methoxypyrrolidin-1-yl)pyrimidine-5-carbonitrile] |  |  | IC50: 9 nM
Cc1nc(N)c(Br)c(N[C@@H](C)c2nc3cccc(Cl)c3c(=O)n2-c2ccccc2)n1 [Compound 20, (S)-2-(1-((6-amino-5-bromo-2-methylpyrimidin-4-yl)amino)ethyl)-5-chloro-3-phenylquinazolin-4(3H)-one] | 21 |  | 
C[C@H](Nc1nc(N)nc(N)c1C#N)c1nc2cccc(OCCN(C)C)c2c(=O)n1-c1ccccc1 [Compound 27] |  |  | IC50 (IC50 (nM) for PI3K isoform δ (Table 3), TR-FRET, 2× Km ATP, 2 μM PIP2, incubated for 30 minutes at 25° C.): 57 nM

Further lines, with some results ahead:

IC50 [1] [nM] | IC50 [3] [nM] | Structure (SMILES) | also measured
4 |  | CS(=O)(=O)c1cccc2nc([C@@H]3CCCN3c3nc(N)nc(N)c3C#N)n(-c3ccccc3F)c(=O)c12 (atropisomer, axis not shown) [Compound 73, (S)-2,4-diamino-6-(2-(3-(2-fluorophenyl)-5-(methylsulfonyl)-4-oxo-3,4-dihydroquinazolin-2-yl)pyrrolidin-1-yl)pyrimidine-5-carbonitrile] | 
3 |  | CS(=O)(=O)c1cccc2nc([C@@H]3CCCN3c3nc(N)nc(N)c3C#N)n(-c3ccccc3F)c(=O)c12 (atropisomer, axis not shown) [Compound 74, (S)-2,4-diamino-6-(2-(3-(2-fluorophenyl)-5-(methylsulfonyl)-4-oxo-3,4-dihydroquinazolin-2-yl)pyrrolidin-1-yl)pyrimidine-5-carbonitrile] | 
7 |  | N#Cc1c(N)nc(N)nc1N1CCC[C@H]1c1nc2c(Cl)ccc(Cl)c2c(=O)n1-c1cccc(S(N)(=O)=O)c1 (single isomer, unassigned) [Compound 92] | 
 | 6 | CC(=O)c1c(N)nc(N)nc1N[C@@H](C)c1nc2cccc(Cl)c2c(=O)n1-c1cc(F)cc(F)c1 [Compound 18a, (S)-2 (1-((5-acetyl-2,6-diaminopyrimidin-4-yl)amino)ethyl)-5-chloro-3-(3,5-difluorophenyl)quinazolin-4(3H)-one] | 
30 |  | Cc1nc(N)c(Br)c(N[C@@H](C)c2nc3cccc(Cl)c3c(=O)n2-c2cc(F)cc(F)c2)n1 [Compound 21, (S)-2-(1-((6-amino-5-bromo-2-methylpyrimidin-4-yl)amino)ethyl)-5-chloro-3-(3,5-difluorophenyl)quinazolin-4(3H)-one] | 
22 |  | C[C@H](Nc1nc(N)nc(N)c1C#N)c1nc2cccc(OCCN3CCOCC3)c2c(=O)n1-c1ccccc1 [Compound 22, (S)-2,4-diamino-6-((1-(5-(2-morpholinoethoxy)-4-oxo-3-phenyl-3,4-dihydroquinazolin-2-yl)ethyl)amino)pyrimidine-5-carbonitrile] | 
10 |  | C[C@H](Nc1nc(N)nc(N)c1C#N)c1nc2cccc(OCCN3CCCCCC3)c2c(=O)n1-c1ccccc1 [Compound 23, (S)-2,4-diamino-6-((1-(5-(2-(azepan-1-yl)ethoxy)-4-oxo-3-phenyl-3,4-dihydroquinazolin-2-yl)ethyl)amino)pyrimidine-5-carbonitrile] | 
10 |  | C[C@H](Nc1nc(N)nc(N)c1C#N)c1nc2cccc(OCCN3CCCC3)c2c(=O)n1-c1ccccc1 [Compound 24, (S)-2,4-diamino-6-((1-(4-oxo-3-phenyl-5-(2-(pyrrolidin-1-yl)ethoxy)-3,4-dihydroquinazolin-2-yl)ethyl)amino)pyrimidine-5-carbonitrile] | 
36 |  | CC(C)OC(=O)COc1cccc2nc([C@H](C)Nc3nc(N)nc(N)c3C#N)n(-c3ccccc3)c(=O)c12 [Compound 25, (S)-isopropyl 2-((2-(1-((2,6-diamino-5-cyanopyrimidin-4-yl)amino)ethyl)-4-oxo-3-phenyl-3,4-dihydroquinazolin-5-yl)oxy)acetate] | 
21 |  | C[C@H](Nc1nc(N)nc(N)c1C#N)c1nc2cccc(OCCN3CCCC3=O)c2c(=O)n1-c1ccccc1 [Compound 26] | 

— patent US9765060B2 (Gilead Sciences, Inc., priority 2014, dated 2017)
